Reference: the supplement of paper PMC11061612

Tests used:
Assay in all cases: combination Emax (second highest fraction inhibited in the dose matrix, 72 h); higher = more inhibition; extreme values may be limits of the assay
[1] = system: SUP-HD1 (Hodgkin's Lymphoma)
Method in brief: (§1)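 After 24 hours at 37°C and 5% CO2 in 1536-well plates, cells in DMEM/F12 or RPMI plus 10% FBS received two-drug dose matrices for 72 hours. Viability came from CellTiter-Glo 2.0 luminescence and was scaled as inhibition, anchored at 0 by vehicle wells and at 1 by blank wells. Combination Emax is taken as the second-highest inhibition in the matrix, and Bliss excess as the observed combination effect less EA + EB − EA·EB, with EA and EB the single-agent effects.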

[2] = system: NCI-H2170 (Squamous Cell Lung Carcinoma)
Method in brief: as §1

[3] = system: HT-1197 (Bladder Carcinoma)
Method in brief: as §1

[4] = system: SK-N-DZ (Neuroblastoma)
Method in brief: as §1

[5] = system: CAL-85-1 (Breast Carcinoma)
Method in brief: as §1

[6] = system: COR-L105 (Lung Adenocarcinoma)
Method in brief: as §1

[7] = system: MDA-MB-175-VII (Breast Carcinoma)
Method in brief: as §1

[8] = system: MG-63 (Osteosarcoma)
Method in brief: as §1

[9] = system: HT-3 (Cervical Carcinoma)
Method in brief: as §1

[10] = system: NCI-H1944 (Lung Adenocarcinoma)
Method in brief: as §1

[11] = system: BT-474 (Breast Carcinoma)
Method in brief: as §1

[12] = system: RPMI-8402 (T-Lymphoblastic Leukemia)
Method in brief: as §1

[13] = system: TK (B-Cell Non-Hodgkin's Lymphoma)
Method in brief: as §1

[14] = system: NCI-H1975 (Lung Adenocarcinoma)
Method in brief: as §1

[15] = system: ATN-1 (T-Lymphoblastic Leukemia)
Method in brief: as §1

[16] = system: SBC-3 (Small Cell Lung Carcinoma)
Method in brief: as §1

[17] = system: RS4-11 (B-Lymphoblastic Leukemia)
Method in brief: as §1

[18] = system: SNU-1 (Gastric Carcinoma)
Method in brief: as §1

[19] = system: SCC90 (Head and Neck Carcinoma)
Method in brief: as §1

Compound | combination Emax [1] | combination Emax [2] | combination Emax [3] | combination Emax [4] | combination Emax [5] | combination Emax [6] | combination Emax [7] | combination Emax [8] | combination Emax [9] | combination Emax [10] | combination Emax [11] | combination Emax [12] | combination Emax [13] | combination Emax [14] | combination Emax [15] | combination Emax [16] | combination Emax [17] | combination Emax [18] | combination Emax [19]
CN(C)CCCOc1ccc(-c2ccc3ncc4c(c3c2)n(C2CCOCC2)c(=O)n4C)cn1 [AZD0156] + C=CCn1c(=O)c2cnc(Nc3ccc(N4CCN(C)CC4)cc3)nc2n1-c1cccc(C(C)(C)O)n1 [AZD1775] (first compound max 1 µM, partner max 1 µM) | 0.836 | 0.7 | 0.486 | 0.962 | 0.363 | 0.418 | 0.299 | 0.526 | 0.331 | 0.618 | 0.195 | 1 | 0.945 | 0.356 | 1 | 0.442 | 0.881 | 0.623 | 0.777
CN(C)CCCOc1ccc(-c2ccc3ncc4c(c3c2)n(C2CCOCC2)c(=O)n4C)cn1 [AZD0156] + CCN(CCO)CCCOc1ccc2c(Nc3cc(CC(=O)Nc4cccc(F)c4)[nH]n3)ncnc2c1 [AZD2811] (first compound max 1 µM, 7x7, partner max 1 µM) | 0.48 | 0.656 | 0.203 | 0.391 | 0.104 | 0.167 | 0.208 | 0.285 | 0.0658 | 0.205 | 0.0605 | 0.889 | 0.273 | 0.3 | 0.835 | 0.409 | 0.979 | 0.434 | 0.231
CN(C)CCCOc1ccc(-c2ccc3ncc4c(c3c2)n(C2CCOCC2)c(=O)n4C)cn1 [AZD0156] + C[C@@H]1COCCN1C2=NC(=NC(=C2)C3(CC3)[S@](=N)(=O)C)C4=C5C=CNC5=NC=C4 [AZD6738] (first compound max 1 µM, 7x7, partner max 10 µM) | 0.785 | 0.799 | 0.526 | 0.975 | 0.446 | 0.472 | 0.342 | 0.706 | 0.609 | 0.868 | 0.198 | 0.983 | 0.907 | 0.407 | 1 | 0.798 | 0.943 | 0.769 | 0.358
C=CCn1c(=O)c2cnc(Nc3ccc(N4CCN(C)CC4)cc3)nc2n1-c1cccc(C(C)(C)O)n1 [AZD1775] + C[C@@H]1COCCN1C2=NC(=NC(=C2)C3(CC3)[S@](=N)(=O)C)C4=C5C=CNC5=NC=C4 [AZD6738] (first compound max 1 µM, partner max 10 µM) | 0.887 |  | 0.592 | 1 | 0.669 | 0.595 | 0.405 | 0.854 | 0.832 | 0.852 | 0.316 | 1 | 0.94 | 0.477 | 1 | 0.889 | 0.994 | 0.817 | 0.927
C=CCn1c(=O)c2cnc(Nc3ccc(N4CCN(C)CC4)cc3)nc2n1-c1cccc(C(C)(C)O)n1 [AZD1775] + O=C(c1cc(Cc2n[nH]c(=O)c3ccccc23)ccc1F)N1CCN(C(=O)C2CC2)CC1 [Olaparib] (first compound max 1 µM, partner max 10 µM) | 0.871 | 0.58 | 0.468 | 0.935 | 0.394 | 0.436 | 0.23 | 0.548 | 0.339 | 0.41 | 0.237 | 1 | 0.898 | 0.262 | 1 | 0.621 | 0.952 | 0.569 | 0.822
CCN(CCO)CCCOc1ccc2c(Nc3cc(CC(=O)Nc4cccc(F)c4)[nH]n3)ncnc2c1 [AZD2811] + C=CCn1c(=O)c2cnc(Nc3ccc(N4CCN(C)CC4)cc3)nc2n1-c1cccc(C(C)(C)O)n1 [AZD1775] (first compound max 1 µM, partner max 1 µM) | 0.841 | 0.716 | 0.481 | 0.96 | 0.297 | 0.331 | 0.205 | 0.393 | 0.241 | 0.471 | 0.125 | 1 | 0.901 | 0.364 | 1 | 0.539 | 0.965 | 0.675 | 0.752
CCN(CCO)CCCOc1ccc2c(Nc3cc(CC(=O)Nc4cccc(F)c4)[nH]n3)ncnc2c1 [AZD2811] + C[C@@H]1COCCN1C2=NC(=NC(=C2)C3(CC3)[S@](=N)(=O)C)C4=C5C=CNC5=NC=C4 [AZD6738] (first compound max 1 µM, 7x7, partner max 10 µM) | 0.781 | 0.803 | 0.424 | 0.96 | 0.481 | 0.45 | 0.384 | 0.677 | 0.694 | 0.733 | 0.239 | 1 | 0.901 | 0.483 | 1 | 0.656 | 1 | 0.73 | 0.353
CCN(CCO)CCCOc1ccc2c(Nc3cc(CC(=O)Nc4cccc(F)c4)[nH]n3)ncnc2c1 [AZD2811] + O=C(c1cc(Cc2n[nH]c(=O)c3ccccc23)ccc1F)N1CCN(C(=O)C2CC2)CC1 [Olaparib] (first compound max 1 µM, 7x7, partner max 10 µM) | 0.718 | 0.623 | 0.203 | 0.405 | 0.0869 | 0.231 | 0.23 | 0.335 | 0.18 | 0.243 | 0.168 | 0.85 | 0.206 | 0.191 | 0.835 | 0.617 | 0.987 | 0.381 | 0.303
CN(CCO)CC[C@H](CSc1ccccc1)Nc1ccc(S(=O)(=O)NC(=O)c2ccc(N3CCC([C@@H](O)c4ccccc4-c4ccc(Cl)cc4)CC3)cc2)cc1S(=O)(=O)C(F)(F)F [AZD4320] + C=CCn1c(=O)c2cnc(Nc3ccc(N4CCN(C)CC4)cc3)nc2n1-c1cccc(C(C)(C)O)n1 [AZD1775] (first compound max 1 µM, partner max 1 µM) | 0.952 | 0.8 | 0.622 | 1 | 0.439 | 0.478 | 0.32 | 0.266 | 0.264 | 0.813 | 0.526 | 1 | 1 | 0.562 | 0.982 | 0.69 | 1 | 0.929 | 0.85
COc1nnc2ccc(N3CCC(c4ccc(OCCN5CCN(C)C(=O)[C@H]5C)cc4)CC3)nn12 [AZD5153] + CN(CC[C@H](CSC1=CC=CC=C1)NC2=C(C=C(C=C2)S(=O)(=O)NC(=O)C3=CC=C(C=C3)N4CCC(CC4)[C@H](C5=CC=CC=C5C6=CC=C(C=C6)Cl)O)S(=O)(=O)C(F)(F)F)CCO [AZD4320] (first compound max 1 µM, 7x7, partner max 1 µM) | 0.988 | 0.838 | 0.845 | 0.922 |  |  |  |  | 0.3 | 0.616 | 0.531 |  | 1 | 0.643 | 0.718 |  | 1 | 0.8 | 0.588
Cc1c2c(nn1C)CSCc1cc(n(C)n1)CSc1cc(c3ccccc3c1)OCCCc1c(C(=O)O)n(C)c3c-2c(Cl)ccc13 [AZD5991] + Cn1cnc2c(F)c(Nc3ccc(Br)cc3Cl)c(C(=O)NOCCO)cc21 [Selumetinib] (first compound max 1 µM, 7x7, partner max 3 µM) | 0.593 | 0.184 | 0.321 | 0.252 | 0.584 | 0.463 |  | 0.251 | 0.789 | 0.304 | 0.246 | 0.692 | 0.114 | 0.816 | 0.888 | 0.225 | 0.497 | 0.605 | 0.99
C[C@@H]1COCCN1c1cc(C2([S@](C)(=N)=O)CC2)nc(-c2ccnc3[nH]ccc23)n1 [AZD6738] + O=C(c1cc(Cc2n[nH]c(=O)c3ccccc23)ccc1F)N1CCN(C(=O)C2CC2)CC1 [Olaparib] (first compound max 10 µM, 7x7, partner max 10 µM) | 0.725 | 0.71 | 0.393 | 0.915 |  | 0.581 | 0.352 | 0.674 | 0.697 | 0.745 | 0.218 | 1 | 0.878 | 0.354 | 1 | 0.699 | 0.979 | 0.777 | 0.48
CC(=O)c1c(C)c2cnc(Nc3ccc(N4CCNCC4)cn3)nc2n(C2CCCC2)c1=O [Palbociclib] + CN(CC[C@H](CSC1=CC=CC=C1)NC2=C(C=C(C=C2)S(=O)(=O)NC(=O)C3=CC=C(C=C3)N4CCC(CC4)[C@H](C5=CC=CC=C5C6=CC=C(C=C6)Cl)O)S(=O)(=O)C(F)(F)F)CCO [AZD4320] (first compound max 10 µM, 7x7, partner max 1 µM) | 0.946 | 0.8 | 0.338 | 0.992 |  |  |  |  | 0.0805 | 0.628 | 0.124 |  | 0.996 | 0.471 | 0.772 |  | 1 | 0.831 | 0.862
